Calls of active or inactive are those of the source. The rule behind the calls is not given here.
Tests used:
[1] = molecular target: Tyrosine-protein kinase SYK (Homo sapiens) (UniProt P43405); experiment: Inhibition of human SYK at 500 nM by HotSpot assay relative to control
[2] = molecular target: Tyrosine-protein kinase Yes (Homo sapiens) (UniProt P07947); experiment: Inhibition of human YES1 at 500 nM by HotSpot assay relative to control
[3] = molecular target: CDK1/Cyclin A (Homo sapiens) (UniProt P06493+P20248); experiment: Inhibition of human CDK1/cyclin A at 500 nM by HotSpot assay relative to control; format: protein-complex assay
Sequence of CDK1/Cyclin A (Homo sapiens) (P06493 whole entry, looked up, the tested form may be a part): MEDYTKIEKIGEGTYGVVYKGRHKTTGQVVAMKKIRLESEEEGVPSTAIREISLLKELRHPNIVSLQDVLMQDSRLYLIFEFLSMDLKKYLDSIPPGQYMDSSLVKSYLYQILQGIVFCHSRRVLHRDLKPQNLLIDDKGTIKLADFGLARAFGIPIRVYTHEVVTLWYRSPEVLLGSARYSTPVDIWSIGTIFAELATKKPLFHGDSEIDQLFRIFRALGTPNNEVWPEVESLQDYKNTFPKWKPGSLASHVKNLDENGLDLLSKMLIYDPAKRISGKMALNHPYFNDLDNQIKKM
Sequence of CDK1/Cyclin A (Homo sapiens) (P20248 whole entry, looked up, the tested form may be a part): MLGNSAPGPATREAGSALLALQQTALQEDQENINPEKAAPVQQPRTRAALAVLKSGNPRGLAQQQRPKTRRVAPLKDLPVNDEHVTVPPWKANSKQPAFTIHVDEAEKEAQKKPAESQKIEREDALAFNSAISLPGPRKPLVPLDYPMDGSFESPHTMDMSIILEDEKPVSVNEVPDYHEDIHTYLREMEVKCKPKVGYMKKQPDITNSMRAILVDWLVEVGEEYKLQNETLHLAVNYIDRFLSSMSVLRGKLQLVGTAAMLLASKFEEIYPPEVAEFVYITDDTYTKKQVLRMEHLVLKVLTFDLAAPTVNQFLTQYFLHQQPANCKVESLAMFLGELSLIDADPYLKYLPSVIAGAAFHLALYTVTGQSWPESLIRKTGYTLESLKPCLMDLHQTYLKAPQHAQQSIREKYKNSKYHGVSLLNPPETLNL

[4] = Inhibition of mono-phosphorylated human Insulin receptor (978 to 1283 residues) C981S mutant kinase domain expressed in baculovirus infected Sf9 cells incubated for 1 hr by [gamma-33P]ATP assay
[5] = molecular target: T1, TGF-beta receptor type-1 (Homo sapiens) (UniProt P36897); experiment: Inhibition of human ALK5 at 500 nM by HotSpot assay relative to control
T1 sequence (whole entry): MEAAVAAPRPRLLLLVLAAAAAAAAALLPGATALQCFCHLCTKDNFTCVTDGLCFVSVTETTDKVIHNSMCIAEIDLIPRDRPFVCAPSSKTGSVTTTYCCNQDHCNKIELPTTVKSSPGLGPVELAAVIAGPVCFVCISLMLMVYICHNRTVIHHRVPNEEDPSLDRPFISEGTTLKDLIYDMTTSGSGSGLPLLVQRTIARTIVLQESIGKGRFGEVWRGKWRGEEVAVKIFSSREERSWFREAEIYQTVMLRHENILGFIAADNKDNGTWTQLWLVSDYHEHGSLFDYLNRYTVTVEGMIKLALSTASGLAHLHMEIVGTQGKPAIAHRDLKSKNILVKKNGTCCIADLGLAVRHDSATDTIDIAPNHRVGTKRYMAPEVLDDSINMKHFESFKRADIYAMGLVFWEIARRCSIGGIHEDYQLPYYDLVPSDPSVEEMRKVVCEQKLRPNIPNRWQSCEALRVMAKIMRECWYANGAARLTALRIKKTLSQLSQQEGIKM

[6] = molecular target: Fibroblast growth factor receptor 4 (Homo sapiens) (UniProt P22455); experiment: Inhibition of human FGFR4 at 500 nM by HotSpot assay relative to control
Sequence of Fibroblast growth factor receptor 4 (Homo sapiens) (P22455 22-802 limits assumed): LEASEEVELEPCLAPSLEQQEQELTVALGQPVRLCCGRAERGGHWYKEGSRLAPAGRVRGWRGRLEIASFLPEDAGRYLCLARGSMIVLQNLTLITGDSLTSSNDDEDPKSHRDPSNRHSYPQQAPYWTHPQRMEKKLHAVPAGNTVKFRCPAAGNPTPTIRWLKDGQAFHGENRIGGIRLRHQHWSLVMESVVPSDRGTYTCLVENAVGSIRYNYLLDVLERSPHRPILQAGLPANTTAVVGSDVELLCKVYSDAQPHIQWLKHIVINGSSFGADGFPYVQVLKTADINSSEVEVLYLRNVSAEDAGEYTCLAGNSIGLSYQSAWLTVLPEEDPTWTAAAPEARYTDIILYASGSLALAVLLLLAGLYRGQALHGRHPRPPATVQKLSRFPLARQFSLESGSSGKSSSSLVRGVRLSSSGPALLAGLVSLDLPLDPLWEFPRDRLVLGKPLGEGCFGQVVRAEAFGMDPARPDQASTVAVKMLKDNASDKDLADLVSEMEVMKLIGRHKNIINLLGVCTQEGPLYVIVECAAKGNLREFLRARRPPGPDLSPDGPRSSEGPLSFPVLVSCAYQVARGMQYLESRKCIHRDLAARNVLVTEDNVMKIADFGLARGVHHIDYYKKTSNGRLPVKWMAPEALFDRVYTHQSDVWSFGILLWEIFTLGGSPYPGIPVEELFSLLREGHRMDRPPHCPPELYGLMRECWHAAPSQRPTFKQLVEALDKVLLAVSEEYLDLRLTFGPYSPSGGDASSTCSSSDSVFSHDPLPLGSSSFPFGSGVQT

[7] = molecular target: T2, Serine/threonine-protein kinase Nek2 (Homo sapiens) (UniProt P51955); experiment: Inhibition of human NEK2 at 500 nM by HotSpot assay relative to control
T2 sequence (whole entry): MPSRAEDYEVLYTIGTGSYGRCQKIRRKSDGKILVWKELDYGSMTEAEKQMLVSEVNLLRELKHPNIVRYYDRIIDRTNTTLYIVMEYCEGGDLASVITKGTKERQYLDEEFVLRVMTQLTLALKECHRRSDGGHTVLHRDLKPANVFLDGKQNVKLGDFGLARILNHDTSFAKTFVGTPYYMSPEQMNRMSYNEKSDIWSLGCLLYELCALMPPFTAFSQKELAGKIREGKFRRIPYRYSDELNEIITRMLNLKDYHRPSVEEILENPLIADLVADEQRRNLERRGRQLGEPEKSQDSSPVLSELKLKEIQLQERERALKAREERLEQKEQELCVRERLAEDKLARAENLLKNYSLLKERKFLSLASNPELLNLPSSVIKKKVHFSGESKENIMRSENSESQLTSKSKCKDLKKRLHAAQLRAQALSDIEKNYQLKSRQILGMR

[8] = molecular target: Dual specificity mitogen-activated protein kinase kinase 1 (Homo sapiens) (UniProt Q02750); experiment: Inhibition of human MEK1 at 500 nM by HotSpot assay relative to control
Sequence of Dual specificity mitogen-activated protein kinase kinase 1 (Homo sapiens) (Q02750 whole entry): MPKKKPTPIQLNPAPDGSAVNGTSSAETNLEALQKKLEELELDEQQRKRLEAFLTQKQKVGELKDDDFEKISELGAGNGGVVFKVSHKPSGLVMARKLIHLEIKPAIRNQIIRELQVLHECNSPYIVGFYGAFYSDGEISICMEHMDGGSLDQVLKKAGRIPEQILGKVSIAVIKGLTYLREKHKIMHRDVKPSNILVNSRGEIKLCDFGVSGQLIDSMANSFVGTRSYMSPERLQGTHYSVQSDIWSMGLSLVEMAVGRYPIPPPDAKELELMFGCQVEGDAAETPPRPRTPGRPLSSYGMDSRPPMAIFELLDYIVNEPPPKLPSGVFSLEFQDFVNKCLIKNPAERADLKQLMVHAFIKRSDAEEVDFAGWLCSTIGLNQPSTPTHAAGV

[9] = molecular target: T3, Dual specificity mitogen-activated protein kinase kinase 6 (Homo sapiens) (UniProt P52564); experiment: Inhibition of human MKK6 at 500 nM by HotSpot assay relative to control
T3 sequence (whole entry): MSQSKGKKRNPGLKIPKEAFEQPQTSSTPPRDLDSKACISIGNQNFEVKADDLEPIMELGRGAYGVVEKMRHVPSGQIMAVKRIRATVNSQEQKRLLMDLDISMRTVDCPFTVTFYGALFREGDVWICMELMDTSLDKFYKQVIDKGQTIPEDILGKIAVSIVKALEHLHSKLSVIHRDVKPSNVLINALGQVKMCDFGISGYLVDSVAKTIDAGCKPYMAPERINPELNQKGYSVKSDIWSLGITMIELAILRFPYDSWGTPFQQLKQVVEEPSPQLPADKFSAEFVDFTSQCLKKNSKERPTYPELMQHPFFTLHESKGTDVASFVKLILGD

[10] = molecular target: Serine/threonine-protein kinase PLK3 (Homo sapiens) (UniProt Q9H4B4); experiment: Inhibition of human PLK3 at 500 nM by HotSpot assay relative to control
Sequence of Serine/threonine-protein kinase PLK3 (Homo sapiens) (Q9H4B4 whole entry, looked up): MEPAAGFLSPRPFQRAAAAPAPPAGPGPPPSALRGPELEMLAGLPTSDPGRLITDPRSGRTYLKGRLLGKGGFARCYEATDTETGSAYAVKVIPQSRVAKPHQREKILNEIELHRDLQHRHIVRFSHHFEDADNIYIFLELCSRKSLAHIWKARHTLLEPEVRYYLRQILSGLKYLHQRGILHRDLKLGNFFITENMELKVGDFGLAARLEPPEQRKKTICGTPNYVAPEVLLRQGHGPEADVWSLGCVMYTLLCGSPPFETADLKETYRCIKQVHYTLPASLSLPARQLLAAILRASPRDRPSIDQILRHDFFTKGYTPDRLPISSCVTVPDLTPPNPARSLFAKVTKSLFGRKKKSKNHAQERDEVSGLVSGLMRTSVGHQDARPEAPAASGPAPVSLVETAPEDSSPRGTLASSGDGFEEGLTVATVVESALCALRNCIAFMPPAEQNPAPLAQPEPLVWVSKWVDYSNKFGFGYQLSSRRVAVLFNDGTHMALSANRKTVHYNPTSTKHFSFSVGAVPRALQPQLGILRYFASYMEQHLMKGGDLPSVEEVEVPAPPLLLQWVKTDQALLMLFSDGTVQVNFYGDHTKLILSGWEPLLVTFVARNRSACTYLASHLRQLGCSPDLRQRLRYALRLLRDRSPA

[11] = molecular target: T4, Serine/threonine-protein kinase DCLK2 (Homo sapiens) (UniProt Q8N568); experiment: Inhibition of human DCAMKL2 at 500 nM by HotSpot assay relative to control
T4 sequence (whole entry): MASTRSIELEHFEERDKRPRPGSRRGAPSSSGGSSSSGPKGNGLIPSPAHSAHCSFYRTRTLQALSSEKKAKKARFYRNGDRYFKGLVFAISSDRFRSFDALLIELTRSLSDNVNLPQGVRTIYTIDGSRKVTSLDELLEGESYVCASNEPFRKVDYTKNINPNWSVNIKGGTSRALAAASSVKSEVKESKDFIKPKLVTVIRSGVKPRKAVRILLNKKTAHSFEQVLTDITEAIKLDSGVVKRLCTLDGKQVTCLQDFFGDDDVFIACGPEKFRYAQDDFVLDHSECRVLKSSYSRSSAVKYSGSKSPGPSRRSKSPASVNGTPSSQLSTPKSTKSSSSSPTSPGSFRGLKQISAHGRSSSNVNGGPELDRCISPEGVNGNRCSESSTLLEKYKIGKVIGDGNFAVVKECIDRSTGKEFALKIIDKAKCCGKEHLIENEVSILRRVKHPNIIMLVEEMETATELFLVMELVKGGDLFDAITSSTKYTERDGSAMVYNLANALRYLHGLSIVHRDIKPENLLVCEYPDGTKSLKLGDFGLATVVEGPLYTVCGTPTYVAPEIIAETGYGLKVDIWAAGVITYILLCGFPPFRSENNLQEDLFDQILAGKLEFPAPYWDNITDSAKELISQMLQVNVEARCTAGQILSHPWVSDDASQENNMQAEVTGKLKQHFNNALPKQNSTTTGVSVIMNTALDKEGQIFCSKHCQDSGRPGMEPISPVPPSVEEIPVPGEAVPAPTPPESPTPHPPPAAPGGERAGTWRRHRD

Sequence of Tyrosine-protein kinase Yes (Homo sapiens) (P07947 2-543 limits assumed): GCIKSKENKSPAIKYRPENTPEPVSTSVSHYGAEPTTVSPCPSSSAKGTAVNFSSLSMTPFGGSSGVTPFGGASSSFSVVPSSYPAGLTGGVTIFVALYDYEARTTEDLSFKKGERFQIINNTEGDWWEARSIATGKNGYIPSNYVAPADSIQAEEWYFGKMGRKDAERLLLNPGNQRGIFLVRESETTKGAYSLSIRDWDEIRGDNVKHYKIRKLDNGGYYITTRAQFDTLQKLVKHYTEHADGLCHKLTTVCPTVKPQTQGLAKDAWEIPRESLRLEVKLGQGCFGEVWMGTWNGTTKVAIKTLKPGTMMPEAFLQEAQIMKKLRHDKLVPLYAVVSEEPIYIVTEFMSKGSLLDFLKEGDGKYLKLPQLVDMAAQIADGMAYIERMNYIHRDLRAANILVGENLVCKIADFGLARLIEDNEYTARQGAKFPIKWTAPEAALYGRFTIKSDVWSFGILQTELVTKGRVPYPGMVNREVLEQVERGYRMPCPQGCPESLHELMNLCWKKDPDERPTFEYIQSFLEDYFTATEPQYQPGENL

Structure (SMILES)	inhibition [1]	inhibition [2]	inhibition [3]	inhibition [4]	inhibition [5]	inhibition [6]	inhibition [7]	inhibition [8]	inhibition [9]	inhibition [10]	inhibition [11]
Oc1n[nH]c2nnc(-c3c(-c4ccccc4)nn4ccccc34)cc12	0.47%	4.49%	0.95%	Active	4.23%	-3.29%	-3.97%	5.15%	8.78%	1.17%	0.11%
Nc1n[nH]c2nnc(-c3c(-c4ccccc4)nn4ccccc34)cc12	2.6%	8.91%	-0.55%	Active	3.87%	-3.98%	4.69%	5.65%	9.06%	-0.08%	-0.33%

Reference: ChEMBL document CHEMBL5653615 (J Biol Chem, 2013)
